Laboratory results: ChEMBL document CHEMBL5104170, “Discovery of vimseltinib (DCC-3014), a highly selective CSF1R switch-control kinase inhibitor, in clinical development for the treatment of Tenosynovial Giant Cell Tumor (TGCT)” (Bioorg Med Chem Lett, 2022)
≈ marks a conversion by molar mass, not a printed value. Each block holds one molecule with its values, some of them ahead of it.

Experiments:
[1] = system: NFS-60; assay: cells; conditions: Mus musculus, NFS-60, 72 h
Description: Antiproliferative activity against CSF1-treated mouse NFS-60 cells measured after 72 hrs by resazurin method

[2] = Inhibition of His-Glu tagged recombinant human KIT Q694-T753 deletion mutant (565 to 935 residues) measured by spectrophotometric analysis
[3] = cells; conditions: Homo sapiens, Osteoclast
Description: Inhibition of RANKL-induced human osteoclast precursor cells differentiation in presence of human CSF1 and measured by tartrate-resistant acid phosphatase activity assay

[4] = Permeability across apical to basolateral side in human Caco-2 cells; format: ADME, cell-based; conditions: read-out: permeability
[5] = Half-life in dog at 10 mg/kg, po; format: ADME, organism-based, Canis lupus familiaris; conditions: in vivo
[6] = Oral bioavailability in dog at 10 mg/kg; format: ADME, organism-based, Canis lupus familiaris; conditions: in vivo
[7] = Oral bioavailability in rat at 10 mg/kg; format: ADME, organism-based; conditions: in vivo
[8] = Plasma protein binding in mouse; format: ADME, cell-free; conditions: read-out: PPB (converted)
[9] = Clearance in rat at 10 mg/kg, po; format: ADME, organism-based; conditions: in vivo
[10] = AUC (0 to 24 hrs) in dog at 10 mg/kg, po; format: ADME, organism-based, Canis lupus familiaris; set-up: time < 24 hr, dose 10 mg/kg, route po; conditions: in vivo
[11] = Volume of distribution in dog at 10 mg/kg, po; format: ADME, organism-based, Canis lupus familiaris; conditions: in vivo
[12] = Plasma concentration in DBA/1 mouse at 7.5 mg/kg, po administered once daily for 6 days and measured at 6 hrs; format: ADME, organism-based; conditions: time 6 day
[13] = Plasma protein binding in human; format: ADME, cell-free; conditions: read-out: PPB (converted)
[14] = Cmax in rat at 10 mg/kg, po; format: ADME, organism-based; set-up: dose 10 mg/kg, route po; conditions: in vivo
[15] = target: hERG (KCNH2) (Homo sapiens, UniProt Q12809); assay: Inhibition of hERG measured by fluorescence polarization assay; format: toxicity
[16] = In vivo inhibition of CSF1R in CSF1-stimulated DBA/1 mouse assessed as modulation of cFOS mRNA at 7.5 mg/kg, po administered once daily for 6 days followed by CSF1 administration through intravenously and measured at 6 hrs by RT-PCR method; format: functional; conditions: DBA/1, 144 h, time 6 day
[17] = Plasma concentration in DBA/1 mouse at 7.5 mg/kg, po administered once daily for 6 days and measured at 18 hrs; format: ADME, organism-based; conditions: time 6 day
[18] = AUC (0 to 24 hrs) in rat at 10 mg/kg, po; format: ADME, organism-based; set-up: time < 24 hr, dose 10 mg/kg, route po; conditions: in vivo
[19] = Plasma protein binding in dog; format: ADME, cell-free, Canis lupus familiaris; conditions: read-out: PPB (converted)
[20] = Plasma concentration in DBA/1 mouse at 7.5 mg/kg, po administered once daily for 6 days and measured at 8 hrs; format: ADME, organism-based; conditions: time 6 day
[21] = Metabolic stability in mouse liver microsomes assessed as compound remaining at 60 mins; format: ADME, Microsome; conditions: read-out: Stability
[22] = Metabolic stability in dog liver microsomes assessed as compound remaining at 60 mins; format: ADME, Canis lupus familiaris, Microsome; conditions: read-out: Stability
[23] = Tmax in rat at 10 mg/kg, po; format: ADME, organism-based; conditions: in vivo
[24] = Tmax in dog at 10 mg/kg, po; format: ADME, organism-based, Canis lupus familiaris; conditions: in vivo
[25] = In vivo inhibition of CSF1R in CSF1-stimulated DBA/1 mouse assessed as modulation of cFOS mRNA at 7.5 mg/kg, po administered once daily for 6 days followed by CSF1 administration through intravenously and measured at 2 hrs by RT-PCR method; format: functional; conditions: DBA/1, 144 h, time 6 day
[26] = Plasma concentration in DBA/1 mouse at 7.5 mg/kg, po administered once daily for 6 days and measured at 2 hrs; format: ADME, organism-based; conditions: time 6 day
[27] = Plasma concentration in DBA/1 mouse at 7.5 mg/kg, po administered once daily for 6 days and measured at 12 hrs; format: ADME, organism-based; conditions: time 6 day
[28] = Half-life in rat at 10 mg/kg, po; format: ADME, organism-based; conditions: in vivo
[29] = target: Mast/stem cell growth factor receptor Kit (Homo sapiens, UniProt P10721); assay: Inhibition of KIT (unknown origin) in presence of 4 mM ATP measured by cell-based spectrophotometric assay
[30] = Metabolic stability in human liver microsomes assessed as compound remaining at 60 mins; format: ADME, Microsome; conditions: read-out: Stability
[31] = In vivo inhibition of CSF1R in CSF1-stimulated DBA/1 mouse assessed as modulation of cFOS mRNA at 7.5 mg/kg, po administered once daily for 6 days followed by CSF1 administration through intravenously and measured at 24 hrs by RT-PCR method; format: functional; conditions: DBA/1, 144 h, time 6 day
[32] = Aqueous solubility of compound at pH 7.4; format: physicochemical
[33] = Plasma concentration in DBA/1 mouse at 7.5 mg/kg, po administered once daily for 6 days and measured at 24 hrs; format: ADME, organism-based; conditions: time 6 day
[34] = In vivo inhibition of CSF1R in CSF1-stimulated DBA/1 mouse assessed as modulation of cFOS mRNA at 7.5 mg/kg, po administered once daily for 6 days followed by CSF1 administration through intravenously and measured at 4 hrs by RT-PCR method; format: functional; conditions: DBA/1, 144 h, time 6 day
[35] = Clearance in dog at 10 mg/kg, po; format: ADME, organism-based, Canis lupus familiaris; conditions: in vivo
[36] = In vivo inhibition of CSF1R in CSF1-stimulated DBA/1 mouse assessed as modulation of cFOS mRNA at 7.5 mg/kg, po administered once daily for 6 days followed by CSF1 administration through intravenously and measured at 8 hrs by RT-PCR method; format: functional; conditions: DBA/1, 144 h, time 6 day
[37] = Cmax in dog at 10 mg/kg, po; format: ADME, organism-based, Canis lupus familiaris; set-up: dose 10 mg/kg, route po; conditions: in vivo
[38] = Metabolic stability in rat liver microsomes assessed as compound remaining at 60 mins; format: ADME, Microsome; conditions: read-out: Stability
[39] = cells; conditions: Homo sapiens
Description: Inhibition of ABL (unknown origin) in presence of 4 mM ATP measured by cell-based spectrophotometric assay

[40] = Plasma concentration in DBA/1 mouse at 7.5 mg/kg, po administered once daily for 6 days and measured at 4 hrs; format: ADME, organism-based; conditions: time 6 day
[41] = In vivo inhibition of CSF1R in CSF1-stimulated DBA/1 mouse assessed as modulation of cFOS mRNA at 7.5 mg/kg, po administered once daily for 6 days followed by CSF1 administration through intravenously and measured at 12 hrs by RT-PCR method; format: functional; conditions: DBA/1, 144 h, time 6 day
[42] = In vivo inhibition of CSF1R in CSF1-stimulated DBA/1 mouse assessed as modulation of cFOS mRNA at 7.5 mg/kg, po administered once daily for 6 days followed by CSF1 administration through intravenously and measured at 18 hrs by RT-PCR method; format: functional; conditions: DBA/1, 144 h, time 6 day
[43] = Plasma protein binding in rat; format: ADME, cell-free; conditions: read-out: PPB (converted)
[44] = Volume of distribution in rat at 10 mg/kg, po; format: ADME, organism-based; conditions: in vivo

Chain of hERG (KCNH2) (Q12809 whole entry): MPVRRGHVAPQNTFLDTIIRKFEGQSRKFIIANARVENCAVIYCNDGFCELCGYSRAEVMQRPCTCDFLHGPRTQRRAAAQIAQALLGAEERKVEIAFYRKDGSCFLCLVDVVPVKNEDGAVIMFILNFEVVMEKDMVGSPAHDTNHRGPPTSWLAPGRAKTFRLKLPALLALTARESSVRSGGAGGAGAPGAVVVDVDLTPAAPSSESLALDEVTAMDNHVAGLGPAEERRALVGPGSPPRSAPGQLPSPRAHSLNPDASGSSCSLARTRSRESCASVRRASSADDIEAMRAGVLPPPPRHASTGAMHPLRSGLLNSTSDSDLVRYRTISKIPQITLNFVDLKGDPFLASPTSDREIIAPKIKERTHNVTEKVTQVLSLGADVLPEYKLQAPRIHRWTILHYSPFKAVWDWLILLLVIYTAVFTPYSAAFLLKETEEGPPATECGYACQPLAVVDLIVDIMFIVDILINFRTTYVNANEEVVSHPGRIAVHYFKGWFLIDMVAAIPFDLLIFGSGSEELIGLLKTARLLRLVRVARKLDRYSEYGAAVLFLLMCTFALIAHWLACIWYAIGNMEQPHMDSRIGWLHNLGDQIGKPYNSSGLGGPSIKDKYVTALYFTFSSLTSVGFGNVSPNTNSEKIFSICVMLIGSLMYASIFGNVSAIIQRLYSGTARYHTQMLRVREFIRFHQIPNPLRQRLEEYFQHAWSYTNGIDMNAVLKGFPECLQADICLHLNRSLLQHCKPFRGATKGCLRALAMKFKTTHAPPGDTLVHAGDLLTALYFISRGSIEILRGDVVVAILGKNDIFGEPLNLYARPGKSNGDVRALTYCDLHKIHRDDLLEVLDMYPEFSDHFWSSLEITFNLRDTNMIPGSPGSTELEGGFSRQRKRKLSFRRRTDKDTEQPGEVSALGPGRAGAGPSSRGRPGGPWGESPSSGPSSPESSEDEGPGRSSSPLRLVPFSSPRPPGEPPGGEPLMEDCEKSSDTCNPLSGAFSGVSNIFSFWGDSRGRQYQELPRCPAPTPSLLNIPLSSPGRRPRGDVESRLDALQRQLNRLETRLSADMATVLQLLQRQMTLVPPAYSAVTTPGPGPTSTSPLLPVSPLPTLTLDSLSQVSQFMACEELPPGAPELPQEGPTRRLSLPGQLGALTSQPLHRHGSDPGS
Chain of Mast/stem cell growth factor receptor Kit (P10721 whole entry): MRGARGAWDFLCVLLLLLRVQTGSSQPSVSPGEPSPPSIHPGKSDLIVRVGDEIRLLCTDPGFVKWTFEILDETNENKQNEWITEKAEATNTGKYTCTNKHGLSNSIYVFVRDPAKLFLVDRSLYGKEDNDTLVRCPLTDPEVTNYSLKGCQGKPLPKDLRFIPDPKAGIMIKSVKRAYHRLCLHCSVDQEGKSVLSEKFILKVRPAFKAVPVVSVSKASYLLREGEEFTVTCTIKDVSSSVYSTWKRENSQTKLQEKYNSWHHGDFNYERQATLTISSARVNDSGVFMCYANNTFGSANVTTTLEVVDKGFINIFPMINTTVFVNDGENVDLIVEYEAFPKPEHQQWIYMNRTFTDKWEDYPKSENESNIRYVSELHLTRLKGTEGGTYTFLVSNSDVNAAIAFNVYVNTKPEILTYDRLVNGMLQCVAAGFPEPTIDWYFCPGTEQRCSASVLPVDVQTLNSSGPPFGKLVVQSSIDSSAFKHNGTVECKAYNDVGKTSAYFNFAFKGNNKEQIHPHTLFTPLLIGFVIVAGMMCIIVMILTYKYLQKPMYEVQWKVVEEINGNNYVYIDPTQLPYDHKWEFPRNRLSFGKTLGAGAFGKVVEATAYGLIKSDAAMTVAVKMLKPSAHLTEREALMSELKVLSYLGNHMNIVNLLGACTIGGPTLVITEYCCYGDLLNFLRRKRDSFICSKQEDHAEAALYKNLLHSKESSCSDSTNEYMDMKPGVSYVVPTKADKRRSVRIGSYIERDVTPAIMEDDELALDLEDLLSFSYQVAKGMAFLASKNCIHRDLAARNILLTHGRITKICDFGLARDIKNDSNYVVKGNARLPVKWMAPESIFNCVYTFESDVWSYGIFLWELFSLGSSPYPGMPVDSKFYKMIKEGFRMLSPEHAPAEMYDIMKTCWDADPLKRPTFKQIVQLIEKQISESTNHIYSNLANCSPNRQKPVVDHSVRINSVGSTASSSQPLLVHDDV

Compound: CC(=O)Nc1cc(Oc2ccc(-c3cnc(NC(C)C)[nH]c3=O)nc2C)ccn1
IC50 [1]: 193 nM
IC50 [2]: 277 nM

Compound: Cc1nc(-c2cnc(NC3CC3)n(C)c2=O)ccc1Oc1ccnc(-c2cnn(C)c2)c1
IC50 [3]: 7.4 nM
IC50 [1]: 18 nM
IC50 [2]: 1700 nM

Compound: CCNc1ncc(-c2ccc(Oc3ccnc(-c4ccc(C)nc4)c3)c(C)n2)c(=O)[nH]1
IC50 [1]: 1200 nM
IC50 [2]: 1500 nM

Compound: CNC(=O)c1cc(Oc2ccc(-c3cnc(NC(C)C)[nH]c3=O)nc2)ccn1
IC50 [1]: 127 nM
IC50 [2]: 7400 nM

Compound: Cc1nc(-c2cnc(NC(C)C)n(C)c2=O)ccc1Oc1ccnc(-c2cnn(C)c2)c1 [VIMSELTINIB]
Papp A→B [4]: 16 ×10⁻⁶ cm/s
half-life [5]: 10.6 h
bioavailability [6]: 33%
bioavailability [7]: 76%
fraction unbound [8]: 0.026
CL [9]: 0.5 mL/min/kg
AUC [10]: 5.432 µM·h
Vd [11]: 1.33 L/kg
IC50 [3]: 9.3 nM
concentration at 144 h [12]: 2360 ng/mL
fraction unbound [13]: 0.033
Cmax [14]: 3740 nM
IC20 [15]: 20000 nM
inhibition in vivo at 7.5 mg/kg [16]: 88%
concentration at 144 h [17]: 1310 ng/mL
AUC [18]: 38.009 µM·h
fraction unbound [19]: 0.033
concentration at 144 h [20]: 3030 ng/mL
remaining at 1 h [21]: 94.8%
remaining at 1 h [22]: 95.2%
Tmax [23]: 2.67 h
Tmax [24]: 1.67 h
inhibition in vivo at 7.5 mg/kg [25]: 84%
concentration at 144 h [26]: 4450 ng/mL
concentration at 144 h [27]: 1970 ng/mL
IC50 [1]: 18 nM
t1/2 [28]: 19.8 h
IC50 [29]: 1600 nM
remaining at 1 h [30]: 100%
IC50 [2]: 476 nM
inhibition in vivo at 7.5 mg/kg [31]: 79%
solubility [32]: 200 µM (≈ 86.3 µg/mL)
concentration at 144 h [33]: 1380 ng/mL
inhibition in vivo at 7.5 mg/kg [34]: 93%
CL [35]: 2.5 mL/min/kg
inhibition in vivo at 7.5 mg/kg [36]: 92%
Cmax [37]: 1010 nM
remaining at 1 h [38]: 95.2%
IC50 [39]: 2900 nM
concentration at 144 h [40]: 4260 ng/mL
inhibition in vivo at 7.5 mg/kg [41]: 90%
inhibition in vivo at 7.5 mg/kg [42]: 89%
fraction unbound [43]: 0.006
Vd [44]: 0.69 L/kg

Compound: CN(C)CC(=O)N1CCC(c2ccc(NC(=O)c3nc(C#N)c[nH]3)c(C3=CCCCC3)c2)CC1
IC50 [3]: 1.7 nM

Compound: CCNc1ncc(-c2ccc(Oc3ccnc(-n4cnc(C)c4)c3)c(C)n2)c(=O)[nH]1
IC50 [1]: 2800 nM
IC50 [2]: 1300 nM

Compound: Cc1nc(-c2cnc(NC3CCOCC3)[nH]c2=O)ccc1Oc1ccnc(-c2cnn(C)c2)c1
IC50 [1]: 413 nM
IC50 [2]: 3200 nM

Compound: FC(F)(F)c1ccc(CNc2ccc(Cc3c[nH]c4ncc(Cl)cc34)cn2)cn1 [PEXIDARTINIB]
IC50 [1]: 33 nM

Compound: Cc1nc(-c2cnc(N(C)C)[nH]c2=O)ccc1Oc1ccnc(-c2cnn(C)c2)c1
IC50 [3]: 17 nM
IC50 [1]: 716 nM
IC50 [2]: > 3300 nM

Compound: CCn1cc(-c2cc(Oc3ccc(-c4cnc(NC(C)C)[nH]c4=O)nc3C)ccn2)cn1
IC50 [1]: 13 nM
IC50 [2]: 2000 nM

Continued, in another order:

IC50 [1]: 97 nM
IC50 [2]: 142 nM
Compound: CCNc1ncc(-c2ccc(Oc3ccnc(-c4cnn(C)c4)c3)cn2)c(=O)[nH]1

IC50 [3]: 18 nM
IC50 [1]: 45 nM
IC50 [2]: 2100 nM
Compound: CCNc1ncc(-c2ccc(Oc3ccnc(-c4cnn(C)c4)c3)c(C)n2)c(=O)[nH]1

IC50 [1]: 1300 nM
IC50 [2]: 257 nM
Compound: CNc1ncc(-c2ccc(Oc3ccnc(-c4cnn(C)c4)c3)c(C)n2)c(=O)[nH]1

IC50 [1]: 2.6 nM
IC50 [2]: 990 nM
Compound: Cc1nc(-c2cnc(NC3CCCC3)[nH]c2=O)ccc1Oc1ccnc(-c2cnn(C)c2)c1

IC50 [1]: 16 nM
IC50 [2]: 473 nM
Compound: Cc1cc(-c2cnc(N3CCCC3)[nH]c2=O)ncc1Oc1ccnc(-c2cnn(C)c2)c1

IC50 [3]: 16 nM
IC50 [1]: 55 nM
IC50 [2]: > 3300 nM
Compound: Cc1nc(-c2cnc(NC3CC3)[nH]c2=O)ccc1Oc1ccnc(-c2cnn(C)c2)c1

IC50 [1]: 56 nM
IC50 [2]: > 3300 nM
Compound: Cc1nc(-c2cnc(N3CCCC3)[nH]c2=O)ccc1Oc1ccnc(-c2cnn(C)c2)c1

IC50 [1]: 30 nM
IC50 [2]: > 3300 nM
Compound: Cc1nc(-c2cnc(N3CCCCC3)[nH]c2=O)ccc1Oc1ccnc(-c2cnn(C)c2)c1

IC50 [1]: 494 nM
IC50 [2]: > 3300 nM
Compound: Cc1nc(-c2cnc(N3CCOCC3)[nH]c2=O)ccc1Oc1ccnc(-c2cnn(C)c2)c1

IC50 [3]: 13 nM
concentration at 144 h [12]: 451 ng/mL
concentration at 144 h [17]: 21 ng/mL
concentration at 144 h [20]: 360 ng/mL
concentration at 144 h [26]: 696 ng/mL
concentration at 144 h [27]: 20 ng/mL
IC50 [1]: 3.1 nM
IC50 [2]: 322 nM
concentration at 144 h [33]: 17 ng/mL
concentration at 144 h [40]: 563 ng/mL
Compound: Cc1nc(-c2cnc(NC(C)C)[nH]c2=O)ccc1Oc1ccnc(-c2cnn(C)c2)c1
inhibition in vivo at 7.5 mg/kg [16]: 22%
inhibition in vivo at 7.5 mg/kg [25]: 36%
inhibition in vivo at 7.5 mg/kg [31]: 16%
inhibition in vivo at 7.5 mg/kg [34]: 55%
inhibition in vivo at 7.5 mg/kg [36]: 47%
inhibition in vivo at 7.5 mg/kg [41]: 14%
inhibition in vivo at 7.5 mg/kg [42]: 11%
